Converted amounts (≈) assume the structure as drawn.
Experiments:
Type in all cases: cell-based, murine
[1] = tested on: RAW264.7 macrophage cells; assay: Cell viability by MTT method in RAW264.7 cells treated with compounds for 48 hours (no LPS); conditions: RAW264.7, no LPS; for Cell viability (%): mean ± SD
Description: (§1) To evaluate the immunomodulatory effects of these new compounds, the in vitro production of cytokines in RA W264.7 cells were treated without or with the compounds of the invention at different concentrations for 48 hours. The supernatants were collected for TNF-α assay, and cells were collected for viability analysis by MTT method.

TNF-α [2] = assay: TNF-α secretion in LPS-stimulated RAW264.7 cells, ELISA; conditions: 50 ng/mL LPS 48 hours, LPS control 3.81 ± 0.93
Description: (§2) The cytokine levels in culture supernatants were measured by sandwich ELISA methods as described by Chen and Lin (Chen, M. L. et al., Int. Arch. Allergy Immunol. 2007, 143, 21-30). More specifically, the anti-cytokine antibodies (PharMingen, San Diego, Calif.) were coated in the 96-well plates (Nunc, Roskilde, Denmark) after overnight incubation at 4° C. and having been blocked with 1% BSA PBS buffer for 30 min. The samples and standards (recombinant mouse cytokines, PharMingen) were added to the 96-well plates for 2 hours incubation. The biotin-conjugated antibodies (biotinylated rat anti-mouse cytokine monoclonal antibodies, PharMingen) were added and incubated. After washing, streptavidin-conjugated peroxidase was added for 1 hour. The substrates, 2,2′-azino-bis-3-ethyl-benzthiazoline-6-sulfonic acid (ABTS, Sigma), were added to each well for 20 min. The plates were read in a microplate autoreader (Microplate autoreader; Bio-Tek Instruments, Winooski, Vt.) at 405 nm.
(§3) IL-6, a proinflammatory cytokine which is a useful marker of infection, is secreted by macrophages in many infectious and inflammatory states, including cardiac surgery, cardiogenic shock, coronary bypass and bacteria sepsis (Kantar, M. et al., Eur. J. Pediatr. 2000, 159, 156-157). Serum concentration of IL-6 has been reported to correlate with disease severity (Pathan, N. et al., Lancet 2004, 363, 203-209). The productions of IL-6 from LPS-stimulated macrophages were measured to evaluate the anti-inflammation effect of the compounds. The cells were pretreated with compounds isolated from A. camphorata for 30 min and then stimulated with 50 ng/mL LPS for 48 hours. The supernatants were collected for TNF-α and IL-6 assay, and the cells were collected for viability analysis by MTT method.

IL-6 = IL-6 secretion in LPS-stimulated RAW264.7 cells, ELISA; conditions: for IL-6 (pg/mL) secretion: LPS control 238 ± 86; for IC50: Mus musculus, LPS-stimulated RAW264.7, 50 ng/mL LPS 48 hours, highest tested concentration 10 μg/mL, read-out: IC50 of IL-6 production
Description: as §2, §3

TNF-α [3] = assay: Spontaneous TNF-α secretion by RAW264.7 cells, sandwich ELISA of supernatants; conditions: 48 hours; for TNF-α (pg/mL) secretion: spontaneous, control 88 ± 45
Description: as §2, §1

[4] = tested on: LPS-stimulated RAW264.7 macrophage cells; assay: Cell viability by MTT method in LPS-stimulated RAW264.7 cells; conditions: 30 min pretreatment then 50 ng/mL LPS 48 hours
Description: as §3

[5] = 0.5 μg/mL, 50 ng/mL LPS 48 hours
[6] = 10 μg/mL, 50 ng/mL LPS 48 hours

Compound	IC50 (IL-6)	Cell viability (%) ([1]; 0.5 μg/mL)	Cell viability (%) ([1]; 1 μg/mL)	Cell viability (%) ([1]; 2 μg/mL)	Cell viability (%) ([1]; 5 μg/mL)	Cell viability (%) ([1]; 10 μg/mL)	TNF-α (ng/mL) secretion (TNF-α [2]; 0.5 μg/mL)	TNF-α (ng/mL) secretion (TNF-α [2]; 1 μg/mL)	TNF-α (ng/mL) secretion (TNF-α [2]; 5 μg/mL)	TNF-α (ng/mL) secretion (TNF-α [2]; 10 μg/mL)	IL-6 (pg/mL) secretion (IL-6; [5])	IL-6 (pg/mL) secretion (IL-6; 1 μg/mL, 50 ng/mL LPS 48 hours)	IL-6 (pg/mL) secretion (IL-6; 5 μg/mL, 50 ng/mL LPS 48 hours)	IL-6 (pg/mL) secretion (IL-6; [6])	TNF-α (pg/mL) secretion (TNF-α [3]; 0.5 μg/mL)	TNF-α (pg/mL) secretion (TNF-α [3]; 1 μg/mL)	TNF-α (pg/mL) secretion (TNF-α [3]; 2 μg/mL)	TNF-α (pg/mL) secretion (TNF-α [3]; 5 μg/mL)	TNF-α (pg/mL) secretion (TNF-α [3]; 10 μg/mL)	Cell viability (%) ([4]; 0.5 μg/mL)	further results
CC(C)CC1=C(c2ccc(O)cc2)C(=O)NC1=O [Compound 4, 3-(4-Hydroxyphenyl)-4-isobutyl-1H-pyrrole-2,5-dione]	18 µg/mL (≈ 73.4 µM)	97 ± 13%	99 ± 4%	97 ± 5%	94 ± 7%	81 ± 8 %	2.98 ± 0.24 ng/mL	3.22 ± 0.35 ng/mL	3.72 ± 0.23 ng/mL	3.12 ± 0.61 ng/mL	194 ± 81 pg/mL	257 ± 40 pg/mL	195 ± 83 pg/mL	169 ± 63 pg/mL	91 ± 38 pg/mL	83 ± 22 pg/mL	105 ± 13 pg/mL	118 ± 23 pg/mL	104 ± 25 pg/mL	105 ± 6%	Cell viability (%) ([4]; 1 μg/mL): 103 ± 5%; Cell viability (%) ([4]; 5 μg/mL): 97 ± 5%; Cell viability (%) ([4]; 10 μg/mL): 92 ± 8%
CC(C)=CCOc1ccc([C@@H]2C(=O)NC(=O)[C@H]2CC(C)C)cc1 (relative stereo) [Compound 1, trans-3-Isobutyl-4-[4-(3-methyl-2-butenyloxy)phenyl]pyrrolidine-2,5-dione]	10 µg/mL (≈ 31.7 µM)	103 ± 2%	101 ± 3%	108 ± 6%	100 ± 10%	99 ± 7%	3.69 ± 0.39 ng/mL	3.92 ± 0.39 ng/mL	3.68 ± 0.25 ng/mL	3.65 ± 0.17 ng/mL	213 ± 88 pg/mL	211 ± 99 pg/mL	144 ± 64 pg/mL	103 ± 61 pg/mL	117 ± 31 pg/mL	145 ± 44 pg/mL	183 ± 89 pg/mL	212 ± 60 pg/mL	188 ± 41 pg/mL	105 ± 3%	effect on cell viability (in words) [1]: without affecting cell viability; IL-6 production in LPS-stimulated cells (in words) (IL-6; 50 ng/mL LPS 48 hours): significantly decreased; spontaneous TNF-α secretion by RAW264.7 cells (in words) (TNF-α [3]; 0.5˜5 μg/mL): significantly increased; Cell viability (%) ([4]; 1 μg/mL): 106 ± 4%; Cell viability (%) ([4]; 5 μg/mL): 105 ± 3%; Cell viability (%) ([4]; 10 μg/mL): 102 ± 4%
COC(=O)/C(CC(C)C)=C(\C(=O)OC)c1ccc(O)cc1 [Compound 6, Dimethyl 2-(4-hydroxyphenyl)-3-isobutylmaleate]	25 µg/mL (≈ 85.5 µM)	100 ± 6%	99 ± 7%	102 ± 6%	95 ± 8%	96 ± 11%	3.61 ± 0.22 ng/mL	3.70 ± 0.50 ng/mL	3.80 ± 0.53 ng/mL	3.32 ± 0.30 ng/mL	235 ± 106 pg/mL	215 ± 89 pg/mL	209 ± 89 pg/mL	179 ± 91 pg/mL	100 ± 34 pg/mL	114 ± 41 pg/mL	90 ± 14 pg/mL	110 ± 22 pg/mL	116 ± 4 pg/mL	108 ± 6%	Cell viability (%) ([4]; 1 μg/mL): 107 ± 7%; Cell viability (%) ([4]; 5 μg/mL): 106 ± 9%; Cell viability (%) ([4]; 10 μg/mL): 102 ± 10%

The next lines start with results.

IC50 (IL-6)	Compound	Cell viability (%) ([1]; 0.5 μg/mL)	Cell viability (%) ([1]; 1 μg/mL)	Cell viability (%) ([1]; 2 μg/mL)	Cell viability (%) ([1]; 5 μg/mL)	Cell viability (%) ([1]; 10 μg/mL)	TNF-α (ng/mL) secretion (TNF-α [2]; 0.5 μg/mL)	TNF-α (ng/mL) secretion (TNF-α [2]; 1 μg/mL)	TNF-α (ng/mL) secretion (TNF-α [2]; 5 μg/mL)	TNF-α (ng/mL) secretion (TNF-α [2]; 10 μg/mL)	IL-6 (pg/mL) secretion (IL-6; [5])	IL-6 (pg/mL) secretion (IL-6; 1 μg/mL, 50 ng/mL LPS 48 hours)	IL-6 (pg/mL) secretion (IL-6; 5 μg/mL, 50 ng/mL LPS 48 hours)	IL-6 (pg/mL) secretion (IL-6; [6])	TNF-α (pg/mL) secretion (TNF-α [3]; 0.5 μg/mL)	TNF-α (pg/mL) secretion (TNF-α [3]; 1 μg/mL)	TNF-α (pg/mL) secretion (TNF-α [3]; 2 μg/mL)	TNF-α (pg/mL) secretion (TNF-α [3]; 5 μg/mL)	TNF-α (pg/mL) secretion (TNF-α [3]; 10 μg/mL)	Cell viability (%) ([4]; 0.5 μg/mL)	further results
96 µg/mL (≈ 390 µM)	CC(C)CC1=C(c2ccc(O)cc2)C(=O)OC1=O [Compound 5, 3-(4-Hydroxyphenyl)-4-isobutylfuran-2,5-dione]	101 ± 7%	102 ± 5%	99 ± 6%	95 ± 9%	86 ± 8 %	3.44 ± 0.31 ng/mL	4.06 ± 1.14 ng/mL	4.67 ± 1.09 ng/mL	3.63 ± 0.58 ng/mL	221 ± 102 pg/mL	227 ± 94 pg/mL	225 ± 68 pg/mL	215 ± 56 pg/mL	100 ± 26 pg/mL	102 ± 30 pg/mL	90 ± 4 pg/mL	94 ± 19 pg/mL	106 ± 5 pg/mL	106 ± 4 %	Cell viability (%) ([4]; 1 μg/mL): 105 ± 2 %; Cell viability (%) ([4]; 5 μg/mL): 102 ± 2%; Cell viability (%) ([4]; 10 μg/mL): 100 ± 3%
54 µg/mL (≈ 205 µM)	CC(C)C[C@@H]1C(=O)N(O)C(=O)[C@H]1c1ccc(O)cc1 (relative stereo) [Compound 2, trans-1-Hydroxy-3-(4-hydroxyphenyl)-4-isobutylpyrrolidine-2,5-dione]	106 ± 7%	100 ± 5%	100 ± 5%	94 ± 6%	90 ± 4 %	3.34 ± 0.58 ng/mL	4.04 ± 0.46 ng/mL	4.76 ± 0.65 ng/mL	3.66 ± 0.67 ng/mL	216 ± 102 pg/mL	224 ± 110 pg/mL	210 ± 96 pg/mL	191 ± 68 pg/mL	108 ± 28 pg/mL	97 ± 13 pg/mL	105 ± 23 pg/mL	96 ± 8 pg/mL	128 ± 70 pg/mL	110 ± 5 %	Cell viability (%) ([4]; 1 μg/mL): 111 ± 6 %; Cell viability (%) ([4]; 5 μg/mL): 111 ± 8 %; Cell viability (%) ([4]; 10 μg/mL): 109 ± 2 %
17 µg/mL (≈ 68.5 µM)	CC(C)C[C@H]1C(=O)OC(=O)[C@H]1c1ccc(O)cc1 (relative stereo) [Compound 3, cis-3-(4-Hydroxyphenyl)-4-isobutyldihydrofuran-2,5-dione]	91 ± 9%	87 ± 8%	80 ± 9 %	72± 11 %	67 ± 15 %	3.17 ± 0.70 ng/mL	3.64 ± 0.84 ng/mL	3.88 ± 0.37 ng/mL	3.90 ± 0.10 ng/mL	214 ± 82 pg/mL	234 ± 109 pg/mL	185 ± 76 pg/mL	147 ± 53 pg/mL	55 ± 2 pg/mL	74 ± 7 pg/mL	68 ± 7 pg/mL	68 ± 26 pg/mL	77 ± 35 pg/mL	105 ± 6%	Cell viability (%) ([4]; 1 μg/mL): 104 ± 6%; Cell viability (%) ([4]; 5 μg/mL): 99 ± 3%; Cell viability (%) ([4]; 10 μg/mL): 91 ± 4 %
